Measurements published in patent US8703195B2, “Method for solubilising, dispersing and stabilising of substances, products manufactured according to the method as well as the use thereof” (Biorem AG, priority 2006, dated 2014).
Where two headings read alike, the source gives them in different places.

Assays:
[1] = pH 5; cited from earlier work
[2] = unformulated active agent, in practice; cited from earlier work
[3] = cited from earlier work
[4] = Bioavailability of coenzyme Q10; type: in vivo; conditions: oral administration, solubilised with poloxamer and resin or tocopherol by this method
[5] = dissolved in water; cited from earlier work

For Abamectin, the “stability against hydrolysis in aqueous solutions” value [1] is given as “stable”.
In the case of COC1=C(OC)C(=O)C(C/C=C(\C)CC/C=C(\C)CC/C=C(\C)CC/C=C(\C)CC/C=C(\C)CC/C=C(\C)CC/C=C(\C)CC/C=C(\C)CC/C=C(\C)CCC=C(C)C)=C(C)C1=O [coenzyme Q10], the bioavailability [2] is listed as 10%, the “solubility in water” value [3] is listed as “not water-soluble” and the bioavailability [4] is listed as “about 85%”.
In the case of O=C1O[C@H]([C@@H](O)CO)C(O)=C1O [Vitamin C, ascorbic acid], the “time until solution in water becomes light yellow” value [5] is listed as 2 to 3 days.
